# Assays:
# BSJ-03-123 = compound: CC(=O)c1c(C)c2cnc(Nc3ccc(N4CCN(CCOCCOCCOCCNC(=O)COc5cccc6c5C(=O)N(C5CCC(=O)NC5=O)C6=O)CC4)cn3)nc2n(C2CCCC2)c1=O [BSJ-03-123]; test: increase in dead-cell fraction, 72 h; higher = more death;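 also: breast cancer cell lines in 384-well plates, stained with Hoechst plus LIVE/DEAD far red dye and imaged, cells above an LDR intensity threshold counted dead, Hoechst-negative corpses included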
# [1] = compound: CC(=O)c1c(C)c2cnc(Nc3ccc(N4CCNCC4)cn3)nc2n(C2CCCC2)c1=O; test: as above
# [2] = compound: CCN1CCN(Cc2ccc(Nc3ncc(F)c(-c4cc(F)c5nc(C)n(C(C)C)c5c4)n3)nc2)CC1; test: as above
# Neratinib/HKI272 = compound: CCOc1cc2ncc(C#N)c(Nc3ccc(OCc4ccccn4)c(Cl)c3)c2cc1NC(=O)/C=C/CN(C)C [Neratinib/HKI272]; test: as above
# [3] = compound: CCc1cnn2c(NCc3ccc[n+]([O-])c3)cc(N3CCCC[C@H]3CCO)nc12; test: as above
# LEE011/Ribociclib = compound: CN(C)C(=O)c1cc2cnc(Nc3ccc(N4CCNCC4)cn3)nc2n1C1CCCC1 [LEE011/Ribociclib]; test: as above
# THZ1 [4] = compound: T1, CN(C)C/C=C/C(=O)Nc1ccc(C(=O)Nc2cccc(Nc3ncc(Cl)c(-c4c[nH]c5ccccc45)n3)c2)cc1 [THZ1]; test: as above
# Flavopiridol [5] = compound: T2, CN1CC[C@H](c2c(O)cc(O)c3c(=O)cc(-c4ccccc4Cl)oc23)[C@H](O)C1 [Flavopiridol]; test: as above
# [6] = compound: CC(=O)c1c(C)c2cnc(Nc3ccc(N4CCNCC4)cn3)nc2n(C2CCCC2)c1=O; test: GR value, 72 h; higher = faster growth (1 = untreated, <0 = killing);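 also: breast cancer and non-malignant breast epithelial lines, nine half-log doses, viable cells counted by Hoechst and LIVE/DEAD dye imaging versus time-zero plates and DMSO controls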
# THZ531 = compound: CN(C)C/C=C/C(=O)Nc1ccc(C(=O)N2CCC[C@@H](Nc3ncc(Cl)c(-c4c[nH]c5ccccc45)n3)C2)cc1 [THZ531]; test: as above
# THZ1 [7] = compound: T1, THZ1; test: as above
# Flavopiridol [8] = compound: T2, Flavopiridol; test: as above
cell line,measurement,setting,value
ZR751,increase in dead-cell fraction,BSJ-03-123; 0.001 µM,-0.0037
same,increase in dead-cell fraction,BSJ-03-123; 0.003162 µM,-0.0033
same,increase in dead-cell fraction,BSJ-03-123; 0.01 µM,-0.0001
same,increase in dead-cell fraction,BSJ-03-123; 0.03162 µM,-0.0011
same,increase in dead-cell fraction,BSJ-03-123; 0.1 µM,0.0026
same,increase in dead-cell fraction,BSJ-03-123; 0.3162 µM,-0.0001
same,increase in dead-cell fraction,BSJ-03-123; 1 µM,0.0048
same,increase in dead-cell fraction,BSJ-03-123; 3.162 µM,0.004
same,increase in dead-cell fraction,BSJ-03-123; 10 µM,0.0165
same,increase in dead-cell fraction,[1]; 0.0003162 µM,-0.0023
same,increase in dead-cell fraction,[1]; 0.001 µM,-0.0015
same,increase in dead-cell fraction,[1]; 0.003162 µM,-0.0035
same,increase in dead-cell fraction,[1]; 0.01 µM,0.0001
same,increase in dead-cell fraction,[1]; 0.03162 µM,0.002
same,increase in dead-cell fraction,[1]; 0.1 µM,-0.0025
same,increase in dead-cell fraction,[1]; 0.3162 µM,0.0083
same,increase in dead-cell fraction,[1]; 1 µM,0.008
same,increase in dead-cell fraction,[1]; 3.162 µM,0.0189
same,increase in dead-cell fraction,[2]; 0.001 µM,0.0013
same,increase in dead-cell fraction,[2]; 0.003162 µM,0.0092
same,increase in dead-cell fraction,[2]; 0.01 µM,0.0042
same,increase in dead-cell fraction,[2]; 0.03162 µM,0.0075
same,increase in dead-cell fraction,[2]; 0.1 µM,0.0148
same,increase in dead-cell fraction,[2]; 0.3162 µM,0.021
same,increase in dead-cell fraction,[2]; 1 µM,0.0189
same,increase in dead-cell fraction,[2]; 3.162 µM,0.0151
same,increase in dead-cell fraction,[2]; 10 µM,0.0172
same,increase in dead-cell fraction,Neratinib/HKI272; 0.0003162 µM,-0.0059
same,increase in dead-cell fraction,Neratinib/HKI272; 0.001 µM,-0.0002
same,increase in dead-cell fraction,Neratinib/HKI272; 0.003162 µM,-0.0001
same,increase in dead-cell fraction,Neratinib/HKI272; 0.01 µM,-0.0032
same,increase in dead-cell fraction,Neratinib/HKI272; 0.03162 µM,-0.0037
same,increase in dead-cell fraction,Neratinib/HKI272; 0.1 µM,-0.0037
same,increase in dead-cell fraction,Neratinib/HKI272; 0.3162 µM,0
same,increase in dead-cell fraction,Neratinib/HKI272; 1 µM,0.0004
same,increase in dead-cell fraction,Neratinib/HKI272; 3.162 µM,0.001
same,increase in dead-cell fraction,[3]; 0.0001 µM,-0.0029
same,increase in dead-cell fraction,[3]; 0.0003162 µM,-0.0028
same,increase in dead-cell fraction,[3]; 0.001 µM,-0.0042
same,increase in dead-cell fraction,[3]; 0.003162 µM,0.0003
same,increase in dead-cell fraction,[3]; 0.01 µM,-0.0059
same,increase in dead-cell fraction,[3]; 0.03162 µM,0.008
same,increase in dead-cell fraction,[3]; 0.1 µM,0.22
same,increase in dead-cell fraction,[3]; 0.3162 µM,0.21
same,increase in dead-cell fraction,[3]; 1 µM,0.202
same,increase in dead-cell fraction,LEE011/Ribociclib; 0.001 µM,0.001
same,increase in dead-cell fraction,LEE011/Ribociclib; 0.003162 µM,0.0005
same,increase in dead-cell fraction,LEE011/Ribociclib; 0.01 µM,0.0005
same,increase in dead-cell fraction,LEE011/Ribociclib; 0.03162 µM,-0.0023
same,increase in dead-cell fraction,LEE011/Ribociclib; 0.1 µM,0.0065
same,increase in dead-cell fraction,LEE011/Ribociclib; 0.3162 µM,0.0036
same,increase in dead-cell fraction,LEE011/Ribociclib; 1 µM,0.0073
same,increase in dead-cell fraction,LEE011/Ribociclib; 3.162 µM,0.0082
same,increase in dead-cell fraction,LEE011/Ribociclib; 10 µM,0.0077
same,increase in dead-cell fraction,THZ1 [4]; 0.0001 µM,-0.0022
same,increase in dead-cell fraction,THZ1 [4]; 0.0003162 µM,-0.0022
same,increase in dead-cell fraction,THZ1 [4]; 0.001 µM,0.0059
same,increase in dead-cell fraction,THZ1 [4]; 0.003162 µM,-0.0001
same,increase in dead-cell fraction,THZ1 [4]; 0.01 µM,0.002
same,increase in dead-cell fraction,THZ1 [4]; 0.03162 µM,0.0035
same,increase in dead-cell fraction,THZ1 [4]; 0.1 µM,0.0005
same,increase in dead-cell fraction,THZ1 [4]; 0.3162 µM,0.0111
same,increase in dead-cell fraction,THZ1 [4]; 1 µM,0.0673
same,increase in dead-cell fraction,Flavopiridol [5]; 0.0001 µM,-0.0019
same,increase in dead-cell fraction,Flavopiridol [5]; 0.0003162 µM,-0.0035
same,increase in dead-cell fraction,Flavopiridol [5]; 0.001 µM,0.0015
same,increase in dead-cell fraction,Flavopiridol [5]; 0.003162 µM,0.0014
same,increase in dead-cell fraction,Flavopiridol [5]; 0.01 µM,-0.0008
same,increase in dead-cell fraction,Flavopiridol [5]; 0.03162 µM,-0.0022
same,increase in dead-cell fraction,Flavopiridol [5]; 0.1 µM,0.0001
same,increase in dead-cell fraction,Flavopiridol [5]; 0.3162 µM,0.0129
same,increase in dead-cell fraction,Flavopiridol [5]; 1 µM,0.144
same,GR value,[6]; 0.0003162 µM,1.02 GR
same,GR value,[6]; 0.001 µM,0.998 GR
same,GR value,[6]; 0.003162 µM,1.03 GR
same,GR value,[6]; 0.01 µM,1.02 GR
same,GR value,[6]; 0.03162 µM,1.02 GR
same,GR value,[6]; 0.1 µM,0.844 GR
same,GR value,[6]; 0.3162 µM,0.719 GR
same,GR value,[6]; 1 µM,0.637 GR
same,GR value,[6]; 3.162 µM,0.489 GR
same,GR value,THZ531; 0.0001 µM,1.06 GR
same,GR value,THZ531; 0.0003162 µM,0.851 GR
same,GR value,THZ531; 0.001 µM,0.958 GR
same,GR value,THZ531; 0.003162 µM,0.936 GR
same,GR value,THZ531; 0.01 µM,1.03 GR
same,GR value,THZ531; 0.03162 µM,0.969 GR
same,GR value,THZ531; 0.1 µM,0.991 GR
same,GR value,THZ531; 0.3162 µM,0.856 GR
same,GR value,THZ531; 1 µM,-0.208 GR
same,GR value,THZ1 [7]; 0.0001 µM,1.03 GR
same,GR value,THZ1 [7]; 0.0003162 µM,1.02 GR
same,GR value,THZ1 [7]; 0.001 µM,0.935 GR
same,GR value,THZ1 [7]; 0.003162 µM,0.967 GR
same,GR value,THZ1 [7]; 0.01 µM,0.949 GR
same,GR value,THZ1 [7]; 0.03162 µM,0.915 GR
same,GR value,THZ1 [7]; 0.1 µM,0.816 GR
same,GR value,THZ1 [7]; 0.3162 µM,0.748 GR
same,GR value,THZ1 [7]; 1 µM,-0.165 GR
same,GR value,Flavopiridol [8]; 0.0001 µM,0.988 GR
same,GR value,Flavopiridol [8]; 0.0003162 µM,0.993 GR
same,GR value,Flavopiridol [8]; 0.001 µM,0.995 GR
same,GR value,Flavopiridol [8]; 0.003162 µM,0.915 GR
same,GR value,Flavopiridol [8]; 0.01 µM,0.952 GR
same,GR value,Flavopiridol [8]; 0.03162 µM,0.988 GR
same,GR value,Flavopiridol [8]; 0.1 µM,0.935 GR
same,GR value,Flavopiridol [8]; 0.3162 µM,0.577 GR
same,GR value,Flavopiridol [8]; 1 µM,-0.371 GR

# Source: the supplement of paper PMC9663587
